pEC50: −log10 of the molar value.
Columns and labels:
ΔF508-CFTR [1] = molecular target: T1, ΔF508-CFTR (Homo sapiens, UniProt P13569, DEL508-508); experiment: CFTR cell surface levels using HRP-tagged ΔF508-CFTR expressing CFBE cells, in the presence of a co-corrector; type: cell-based; settings: HRP-tagged ΔF508-CFTR expressing CFBE cells, in the presence of 3 μM co-corrector; for pEC50: read-out: EC50
T1 construct: host or cells: CFBE41o-, doxycycline-inducible
How it was run: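 Cells were seeded with 0.5 μg/mL doxycycline and held 68 h at 37 °C. Test compounds plus 3 μM co-corrector (final 0.1% DMSO) were then added for 20 h at 33 °C. Washed cells received HRP substrate, and luminescence was normalized between DMSO and 3 μM co-corrector controls.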

ΔF508-CFTR [2] = molecular target: T1, ΔF508-CFTR; experiment: CFTR cell surface levels using HRP-tagged ΔF508-CFTR expressing CFBE cells, intrinsic corrector capacity; type: cell-based; settings: HRP-tagged ΔF508-CFTR expressing CFBE cells, intrinsic corrector capacity (no co-corrector), 33° C., 20 hours; for pEC50: read-out: EC50
How it was run: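 Here the cells express ΔF508-CFTR with horseradish peroxidase inserted in extracellular loop 4, so only rescued channel at the surface gives luminescent signal. Compounds act on their own, 20 h at the reduced temperature of 33 °C; values are percent activity relative to DMSO and a 3 μM corrector.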

T1 sequence (P13569 with tags, fused parts or gaps DEL508-508): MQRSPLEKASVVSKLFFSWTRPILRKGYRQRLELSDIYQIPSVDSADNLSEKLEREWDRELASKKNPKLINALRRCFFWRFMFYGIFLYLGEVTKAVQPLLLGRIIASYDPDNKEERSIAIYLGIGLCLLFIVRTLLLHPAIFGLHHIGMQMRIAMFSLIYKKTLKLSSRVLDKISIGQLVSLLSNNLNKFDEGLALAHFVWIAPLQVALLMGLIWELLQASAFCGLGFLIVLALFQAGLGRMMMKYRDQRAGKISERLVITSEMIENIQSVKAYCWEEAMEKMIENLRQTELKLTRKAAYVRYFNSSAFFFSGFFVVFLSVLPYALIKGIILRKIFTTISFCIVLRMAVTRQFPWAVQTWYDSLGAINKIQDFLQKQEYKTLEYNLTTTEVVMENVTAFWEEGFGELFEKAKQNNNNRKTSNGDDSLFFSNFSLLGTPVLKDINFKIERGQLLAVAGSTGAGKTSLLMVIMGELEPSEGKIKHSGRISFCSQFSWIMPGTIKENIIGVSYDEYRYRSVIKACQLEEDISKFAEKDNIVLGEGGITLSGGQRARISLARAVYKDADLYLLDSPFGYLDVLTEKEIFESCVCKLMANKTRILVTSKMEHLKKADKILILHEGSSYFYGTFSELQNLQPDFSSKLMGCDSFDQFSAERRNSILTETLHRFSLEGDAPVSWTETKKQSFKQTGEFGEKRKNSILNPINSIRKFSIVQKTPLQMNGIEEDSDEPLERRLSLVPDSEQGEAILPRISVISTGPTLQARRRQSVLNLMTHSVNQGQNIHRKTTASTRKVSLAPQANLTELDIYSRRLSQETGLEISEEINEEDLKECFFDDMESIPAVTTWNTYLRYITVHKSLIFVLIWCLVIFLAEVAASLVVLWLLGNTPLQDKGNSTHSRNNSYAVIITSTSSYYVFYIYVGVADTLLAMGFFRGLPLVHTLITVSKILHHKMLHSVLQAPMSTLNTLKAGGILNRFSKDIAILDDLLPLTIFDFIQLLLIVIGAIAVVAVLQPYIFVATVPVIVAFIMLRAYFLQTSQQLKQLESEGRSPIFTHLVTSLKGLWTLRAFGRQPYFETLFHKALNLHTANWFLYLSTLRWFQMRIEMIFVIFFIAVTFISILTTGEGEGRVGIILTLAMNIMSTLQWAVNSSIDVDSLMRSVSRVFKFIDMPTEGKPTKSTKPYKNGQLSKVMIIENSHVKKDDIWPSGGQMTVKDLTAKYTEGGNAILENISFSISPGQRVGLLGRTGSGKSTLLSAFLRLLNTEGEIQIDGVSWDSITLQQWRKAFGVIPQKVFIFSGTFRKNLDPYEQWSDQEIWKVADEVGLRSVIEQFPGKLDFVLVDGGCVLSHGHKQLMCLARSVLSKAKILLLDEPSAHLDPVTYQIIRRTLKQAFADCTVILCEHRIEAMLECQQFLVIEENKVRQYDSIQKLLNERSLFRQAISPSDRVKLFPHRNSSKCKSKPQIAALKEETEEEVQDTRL

| Structure (SMILES) | % Activation (ΔF508-CFTR [1]) [%] | pEC50 (ΔF508-CFTR [1]) | % Activation (ΔF508-CFTR [2]) [%] | pEC50 (ΔF508-CFTR [2]) |
| --- | --- | --- | --- | --- |
| O=C(O)c1cc(OC2CN(C3CCCCC3)C2)c2c(C3CCC3)nn(-c3ccccc3)c2n1 [compound 599, 3-cyclobutyl-4-[(1-cyclohexylazetidin-3-yl)oxy]-1-phenyl-1H-pyrazolo[3,4-b]pyridine-6-carboxylic acid] | 248.4 | 6.42 | 81.59 | 6.45 |
| CC(C)c1nn(-c2cccc(N(C)C)c2)c2nc(C(=O)O)cc(OCC3CCOCC3)c12 [compound 602, 1-[3-(dimethylamino)phenyl]-4-[(oxan-4-yl)methoxy]-3-(propan-2-yl)-1H-pyrazolo[3,4-b]pyridine-6-carboxylic acid] | 393.4 | 6.87 | 159.3 | 6.59 |
| CC(C)c1nn(C2CCCCC2)c2nc(C(=O)O)cc(OCC3CCOCC3)c12 [compound 603, 1-cyclohexyl-4-[(oxan-4-yl)methoxy]-3-(propan-2-yl)-1H-pyrazolo[3,4-b]pyridine-6-carboxylic acid] | 273.3 | 6.06 | 92.66 | 5.75 |
| CC(C)c1nn(-c2ccc(F)cc2)c2nc(C(=O)O)cc(OCCC3CCOCC3)c12 [compound 604, 1-(4-fluorophenyl)-4-[2-(oxan-4-yl)ethoxy]-3-(propan-2-yl)-1H-pyrazolo[3,4-b]pyridine-6-carboxylic acid] | 292.2 | 6.59 | 142.9 | 6.13 |
| COC(C)(C)C1CCN(c2cc(C(=O)O)nc3c2c(C2CCC2)nn3-c2ccccc2)CC1 [compound 605, 3-cyclobutyl-4-[4-(2-methoxypropan-2-yl)piperidin-1-yl]-1-phenyl-1H-pyrazolo[3,4-b]pyridine-6-carboxylic acid] | 531.3 | 7.36 | 292.8 | 7.09 |
| CN(C)CCCCOc1cc(C(=O)O)nc2c1c(C1CCC1)nn2-c1ccccc1 [compound 611, 3-cyclobutyl-4-[4-(dimethylamino)butoxy]-1-phenyl-1H-pyrazolo[3,4-b]pyridine-6-carboxylic acid] | 278.1 | 5.53 | 104.6 | 5.48 |
| CC(=O)N1CCC(Oc2cc(C(=O)O)nc3c2c(C2CCC2)nn3-c2ccccc2)CC1 [compound 612, 4-[(1-acetylpiperidin-4-yl)oxy]-3-cyclobutyl-1-phenyl-1H-pyrazolo[3,4-b]pyridine-6-carboxylic acid] | 266.9 | 5.93 | 109.5 | 5.48 |
| O=C(O)c1cc(OCC(F)(F)F)c2c(C3CCC3)nn(-c3ccccc3)c2n1 [compound 613, 3-cyclobutyl-1-phenyl-4-(2,2,2-trifluoroethoxy)-1H-pyrazolo[3,4-b]pyridine-6-carboxylic acid] | 292 | 6.13 | 99.78 | 5.80 |
| CN(C)CCOCCOc1cc(C(=O)O)nc2c1c(C1CCC1)nn2-c1ccccc1 [compound 614, 3-cyclobutyl-4-{2-[2-(dimethylamino)ethoxy]ethoxy}-1-phenyl-1H-pyrazolo[3,4-b]pyridine-6-carboxylic acid] | 176.9 | 5.48 | 32.02 | 5.48 |
| C[C@@H](CN(C)C)Oc1cc(C(=O)O)nc2c1c(C1CCC1)nn2-c1ccccc1 [compound 615, 3-cyclobutyl-4-{[(2S)-1-(dimethylamino)propan-2-yl]oxy}-1-phenyl-1H-pyrazolo[3,4-b]pyridine-6-carboxylic acid] | 216.65 | 5.63 | 44.6 | 5.48 |
| O=C(O)c1cc(OCC2CCC(F)(F)CC2)c2c(C3CCC3)nn(-c3ccccc3)c2n1 [compound 616, 3-cyclobutyl-4-[(4,4-difluorocyclohexyl)methoxy]-1-phenyl-1H-pyrazolo[3,4-b]pyridine-6-carboxylic acid] | 389.95 | 7.08 | 144.2 | 6.93 |
| O=C1CC[C@H](COc2cc(C(=O)O)nc3c2c(C2CCC2)nn3-c2ccccc2)N1 [compound 617, 3-cyclobutyl-4-{[(2R)-5-oxopyrrolidin-2-yl]methoxy}-1-phenyl-1H-pyrazolo[3,4-b]pyridine-6-carboxylic acid] | 127.3 | < 5.00 | 7.139 | < 5.00 |
| CC1(C)OC[C@@H](COc2cc(C(=O)O)nc3c2c(C2CCC2)nn3-c2ccccc2)O1 [compound 618, 3-cyclobutyl-4-{[(4R)-2,2-dimethyl-1,3-dioxolan-4-yl]methoxy}-1-phenyl-1H-pyrazolo[3,4-b]pyridine-6-carboxylic acid] | 315.25 | 6.45 | 105.9 | 6.26 |
| O=C1CC[C@H](Oc2cc(C(=O)O)nc3c2c(C2CCC2)nn3-c2ccccc2)CN1 [compound 619, 3-cyclobutyl-4-{[(3S)-6-oxopiperidin-3-yl]oxy}-1-phenyl-1H-pyrazolo[3,4-b]pyridine-6-carboxylic acid] | 134.1 | < 5.00 | 7.484 | < 5.00 |
| CCC1(COc2cc(C(=O)O)nc3c2c(C2CCC2)nn3-c2ccccc2)COCOC1 [compound 620, 3-cyclobutyl-4-[(5-ethyl-1,3-dioxan-5-yl)methoxy]-1-phenyl-1H-pyrazolo[3,4-b]pyridine-6-carboxylic acid] | 323.25 | 6.77 | 147.4 | 6.60 |
| CN1[C@@H]2CC[C@H]1C[C@@H](Oc1cc(C(=O)O)nc3c1c(C1CCC1)nn3-c1ccccc1)C2 [compound 621, 3-cyclobutyl-4-{[(3-endo)-8-methyl-8-azabicyclo[3.2.1]octan-3-yl]oxy}-1-phenyl-1H-pyrazolo[3,4-b]pyridine-6-carboxylic acid] | 294.75 | 5.50 | 89.46 | 5.48 |
| CC1(COc2cc(C(=O)O)nc3c2c(C2CCC2)nn3-c2ccccc2)COCOC1 [compound 622, 3-cyclobutyl-4-[(5-methyl-1,3-dioxan-5-yl)methoxy]-1-phenyl-1H-pyrazolo[3,4-b]pyridine-6-carboxylic acid] | 275.2 | 7.17 | 124.5 | 6.78 |
| O=C(O)c1cc(OCCN2CCC3(CC2)OCCO3)c2c(C3CCC3)nn(-c3ccccc3)c2n1 [compound 623, 3-cyclobutyl-4-[2-(1,4-dioxa-8-azaspiro[4.5]decan-8-yl)ethoxy]-1-phenyl-1H-pyrazolo[3,4-b]pyridine-6-carboxylic acid] | 308.3 | 6.30 | 106.8 | 5.94 |
| CCN(CC)CCCOc1cc(C(=O)O)nc2c1c(C1CCC1)nn2-c1ccccc1 [compound 624, 3-cyclobutyl-4-[3-(diethylamino)propoxy]-1-phenyl-1H-pyrazolo[3,4-b]pyridine-6-carboxylic acid] | 281.85 | 5.66 | 98.14 | 5.48 |
